Measured values published in patent publication US20130130306A1, “ZN (II) BASED COLORIMETRIC SENSOR AND PROCESS FOR THE PREPARATION THEREOF” (COUNCIL OF SCIENTIFIC & INDUSTRIAL RESEARCH, priority 2010, published 2013).

What was measured:
[1] = test system: Bacillus megaterium (Gram +ve); assay: Staining of Gram +ve bacteria, light microscopy; type: cell-based; design: change in color of bacterial stains: dose or concentration left out as unconfirmed
Experimental: The isolates of Saccharomyces sp. were cultured in GYE (glucose yeast extract agar) media, Bacillus sp. in Nutrient broth, and Pseudomonas sp. in King's B medium for 24 hour at 37° C. […] of this was taken and was allowed to incubate at 30 to 40° C. along with 100 μl of L.Zn (Scheme 1, Formula 1A) (1.16×10^−4 M) solution. The samples were fixed overnight at room temperature 25-30° C. with 2% (v/v) glutaraldehyde in 0.1 M phosphate buffer at pH 7.5. The samples were then washed with 0.1 M phosphate buffer (pH 7.5) at room temperature 25-30° C. for 1 hour. Post-fixation was carried out in 2% (w/v) osmium tetroxide (OsO4) in the same buffer and was washed once with 0.1 M phosphate buffer for 20 minutes. […]
We also explored the possibility of using L.Zn/L.Zn.α-CD as the staining agent for prokaryotes (Gram +ve and Gram −ve bacterial cells). […] Changes on the cell surfaces on binding of the dye, L.Zn (Scheme 1, Formula 1A) were also evident from the SEM images recorded for Gram −ve and Gram +ve bacteria, in absence and presence of staining agent (FIGS. 11C to 11F). […] The growth profile of Eukaryotic Yeast cells (Saccharomyces cerevisiae) and Prokaryotic bacterial cells ([…]) in an aqueous culture medium in absence and presence of L.Zn (Scheme 1, Formula 1A) are shown in FIG. 12. […]

[2] = Solubility in water without and with α-cyclodextrin; type: physicochemical
Experimental: Solubility of L.Zn (Scheme 1, Formula 1A) in water is limited (0.0448 gL^−1). However, this could be enhanced in presence of α-cyclodextrin (c-CD). 2.3 mg of L.Zn (Scheme 1, Formula 1A) was dissolved in 5 mL of double distilled water and stirred at 25 to 35° C. for 1 hour. […] Similar experiment was repeated in presence of α-CD. In this case 14.2 mg of α-CD was dissolved in 5 mL of double distilled water containing 2.913 mg of L.Zn (Scheme 1, Formula 1A) and this solution was stirred at 25° C. for 1 hour; while a solution with little suspended solid was obtained. This was filtered using G-4 gooch crucible. Filtrate was collected and optical density (O.D.) of the filtrate was monitored at 458 nm. Considering the complete formation of the inclusion complex (pseudorotaxane form), concentration was evaluated based on the known εLZn.α-CD value and the O.D. at 458 nm. […] L.Zn (Scheme 1, Formula 1A) present in aqueous solution in the pseudorotaxane form is being represented as L.Zn.CD in Scheme 2.

CN(C)c1ccc(N=Nc2ccc(S(=O)(=O)N3CCCNCCNCCCNCC3)cc2)cc1.O=[N+]([O-])[O-].O=[N+]([O-])[O-].[Zn+2] [L.Zn]
growth of colonies streaked on nutrient agar plates after incubation with sensor ([1]; Bacillus species in Nutrient broth, sensor 1.0×10^−4 M, 25° C., 10 mins): colonies of the test microbes grew | change in color of bacterial stains ([1]; light microscopy): distinct change in color | L.Zn present in solution in presence of α-CD ([2]; 14.2 mg α-CD in 5 mL double distilled water, 25° C., O.D. at 458 nm): 0.34 g/L | solubility in water ([2]; double distilled water, stirred 1 hour, from optical density of filtrate): 0.0448 gL^−1 | solubility in water ([2]; present reagent): completely soluble in water | increase in solubility in presence of α-CD ([2]; water, with versus without α-CD): ~7.5 fold
